The source of these data is article PMC9950447, “Targeting USP10 induces degradation of oncogenic ANLN in esophageal squamous cell carcinoma” (Cell Death and Differentiation, 2022).

Assay [1] addresses T1, USP10 (Homo sapiens, UniProt Q14694).
T1 construct: His-USP10
The assay is described as follows: SPR (Biacore T200, His-USP10 immobilized on CM5 chip); supported by Ub-AMC inhibition of purified USP10 (IC50 […]). The class given is binding.

Assay [2] deals with recombinant GST-USP10 (human, UniProt Q14694-3 1-802). Description: pull-down; in vitro GST pull down: GST-tagged protein bound to GST Bind Resin in GST lysis buffer, His-tagged proteins added, 4 °C for 4 h, six washes with PBST, western blot. The conditions noted are these: both partners purified.
recombinant GST-USP10, sequence (Q14694 other isoform, or with tags, fused parts or gaps): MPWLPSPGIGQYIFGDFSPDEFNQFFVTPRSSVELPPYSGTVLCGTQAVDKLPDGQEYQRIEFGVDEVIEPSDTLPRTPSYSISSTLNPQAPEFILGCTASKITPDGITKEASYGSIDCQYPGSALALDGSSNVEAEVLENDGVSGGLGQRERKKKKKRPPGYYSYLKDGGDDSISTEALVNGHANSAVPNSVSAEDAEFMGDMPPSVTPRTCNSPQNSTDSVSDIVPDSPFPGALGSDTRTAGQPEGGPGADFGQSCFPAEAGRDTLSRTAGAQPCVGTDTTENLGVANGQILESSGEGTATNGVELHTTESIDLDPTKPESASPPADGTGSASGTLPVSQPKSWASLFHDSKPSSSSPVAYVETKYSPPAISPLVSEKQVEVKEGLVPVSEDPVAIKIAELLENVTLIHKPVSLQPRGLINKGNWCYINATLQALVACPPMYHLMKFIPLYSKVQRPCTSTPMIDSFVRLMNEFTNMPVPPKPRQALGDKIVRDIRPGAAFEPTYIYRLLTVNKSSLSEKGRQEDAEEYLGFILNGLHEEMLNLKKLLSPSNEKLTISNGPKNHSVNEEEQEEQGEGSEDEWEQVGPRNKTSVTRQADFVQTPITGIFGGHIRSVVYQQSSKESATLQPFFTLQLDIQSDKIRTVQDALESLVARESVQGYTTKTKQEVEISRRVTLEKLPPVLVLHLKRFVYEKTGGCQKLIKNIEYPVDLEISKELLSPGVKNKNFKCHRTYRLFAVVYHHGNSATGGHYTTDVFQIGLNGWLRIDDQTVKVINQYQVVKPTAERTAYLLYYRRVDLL

T1 sequence (Q14694 2-798): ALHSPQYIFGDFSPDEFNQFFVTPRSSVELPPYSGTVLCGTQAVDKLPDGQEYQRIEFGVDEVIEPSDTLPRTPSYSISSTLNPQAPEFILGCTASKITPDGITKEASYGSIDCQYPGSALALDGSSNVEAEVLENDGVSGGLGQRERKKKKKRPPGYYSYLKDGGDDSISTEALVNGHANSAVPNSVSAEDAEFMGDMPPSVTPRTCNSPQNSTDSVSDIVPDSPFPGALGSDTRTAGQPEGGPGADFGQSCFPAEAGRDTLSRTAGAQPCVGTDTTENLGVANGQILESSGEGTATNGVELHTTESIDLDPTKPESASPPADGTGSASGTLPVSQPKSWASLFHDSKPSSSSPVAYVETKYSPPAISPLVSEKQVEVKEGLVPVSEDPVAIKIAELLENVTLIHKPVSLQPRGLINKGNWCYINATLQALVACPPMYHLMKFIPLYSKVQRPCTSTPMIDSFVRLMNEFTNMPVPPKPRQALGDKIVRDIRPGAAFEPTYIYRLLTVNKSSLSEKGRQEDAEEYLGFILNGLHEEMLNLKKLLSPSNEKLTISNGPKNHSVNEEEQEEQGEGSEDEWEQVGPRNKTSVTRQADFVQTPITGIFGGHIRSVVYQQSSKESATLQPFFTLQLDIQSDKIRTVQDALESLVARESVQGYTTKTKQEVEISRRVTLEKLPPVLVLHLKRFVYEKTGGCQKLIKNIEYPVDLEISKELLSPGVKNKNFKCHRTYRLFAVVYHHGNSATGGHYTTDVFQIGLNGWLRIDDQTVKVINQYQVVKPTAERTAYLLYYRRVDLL

Regarding `CC1=C[C@H](C)C[C@H](C)[C@H](Cc2cnco2)OC(=O)/C(C)=C\[C@H](C)C[C@H](C)[C@H](Cc2cnco2)OC1=O` [F806, FW-04-806], the Kd in assay [1] was ~27.5 µM.

B1: His-ANLN amino acids 1-454 (domain or fragment, human, UniProt Q9NQW6 1-454, looked up)
chain: MDPFTEKLLERTRARRENLQRKMAERPTAAPRSMTHAKRARQPLSEASNQQPLSGGEEKSCTKPSPSKKRCSDNTEVEVSNLENKQPVESTSAKSCSPSPVSPQVQPQAADTISDSVAVPASLLGMRRGLNSRLEATAASSVKTRMQKLAEQRRRWDNDDMTDDIPESSLFSPMPSEEKAASPPRPLLSNASATPVGRRGRLANLAATICSWEDDVNHSFAKQNSVQEQPGTACLSKFSSASGASARINSSSVKQEATFCSQRDGDASLNKALSSSADDASLVNASISSSVKATSPVKSTTSITDAKSCEGQNPELLPKTPISPLKTGVSKPIVKSTLSQTVPSKGELSREICLQSQSKDKSTTPGGTGIKPFLERFGERCQEHSKESPARSTPHRTPIITPNTKAIQERLFKQDTSSSTTHLAQQLKQERQKELACLRGRFDKGNIWSAEKGG
notes: also called His-ANLN mutant
For the molecule B1, the binding result in assay [2] is recorded as “binds”.

A word on the Kd: it is the free concentration of one partner at which half of the binding sites on the other are occupied at equilibrium, for simple one-to-one binding. The low end stands for higher affinity, the high end for lower affinity.
